Drawing on US7745479B2, “1,5-substituted indol-2-yl amide derivatives” (Hoffmann-La Roche Inc., priority 2005, dated 2010), this text covers Ki for one compound.

This assay has as its target T1, histamine 3 receptor (H3R) (Homo sapiens, UniProt Q9Y5N1).
T1 construct: expressed in transfected cells; host or cells: CHO cells (HR3-CHO cell line), membrane preparation
Put plainly: Competition binding assay with 3H-(R)α-methylhistamine on membranes of the human HR3-CHO cell line. The note with it: competition with 3H(R)α-Methylhistamine (1 nM), Ki calculated from IC50 by Cheng-Prusoff equation. Here is the method:
Binding Assay with ^3H-(R)α-methylhistamine
Saturation binding experiments were performed using HR3-CHO membranes prepared as described in Takahashi, K, Tokita, S., Kotani, H. (2003) J. Pharmacol. Exp. Therapeutics 307, 213-218.
An appropriate amount of membrane (60 to 80 μg protein/well) was incubated with increasing concentrations of ^3H(R)α-Methylhistamine di-hydrochloride (0.10 to 10 nM). Non specific binding was determined using a 200 fold excess of cold (R)α-Methylhistamine dihydrobromide (500 nM final concentration). The incubation was carried out at room temperature (in deep-well plates shaking for three hours). The final volume in each well was 250 μl. […] After harvesting, the plates were dried at 55° C. for 60 min, then scintillation fluid (Microscint 40, 40 microl in each well) was added and the amount of radioactivity on the filter was determined with a Packard top-counter after shaking the plates for two hours at 200 rpm at room temperature. • Binding Buffer: 50 mM Tris-HCl pH 7.4 and 5 mM MgCl2x6H2O pH 7.4. […]
An appropriate amount of protein, e.g. approximately 500 cpm binding of RAMH at Kd, were incubated for 1 hour at room temperature in 250 μl final volume in 96-well plates in presence of ^3H(R)α-Methylhistamine (1 nM final concentration=Kd). Non-specific binding was determined using a 200 fold excess of cold (R)α-Methylhistamine dihydrobromide. […]

T1 sequence (Q9Y5N1 whole entry): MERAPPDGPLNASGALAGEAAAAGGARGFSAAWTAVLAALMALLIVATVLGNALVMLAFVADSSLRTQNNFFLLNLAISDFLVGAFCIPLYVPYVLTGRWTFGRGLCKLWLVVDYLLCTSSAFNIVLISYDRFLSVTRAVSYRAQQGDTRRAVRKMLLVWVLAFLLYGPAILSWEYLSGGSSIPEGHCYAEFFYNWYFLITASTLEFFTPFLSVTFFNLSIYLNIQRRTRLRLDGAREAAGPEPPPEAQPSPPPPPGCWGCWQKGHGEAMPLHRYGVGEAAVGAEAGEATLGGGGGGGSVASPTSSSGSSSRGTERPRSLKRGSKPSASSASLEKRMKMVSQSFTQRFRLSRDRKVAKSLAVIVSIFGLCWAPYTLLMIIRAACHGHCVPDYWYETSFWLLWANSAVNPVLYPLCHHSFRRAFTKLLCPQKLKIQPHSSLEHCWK

The Ki is a measure of affinity in units of concentration, obtained from inhibition or displacement. With `CC(C)N1CCC(Oc2ccc3c(c2)cc(C(=O)N2CCC(F)(F)CC2)n3-c2ccnc(Cl)c2)CC1` [Example 9, [1-(2-Chloro-pyridin-4-yl)-5-(1-isopropyl-piperidin-4-yloxy)-1H-indol-2-yl]-(4,4-difluoro-piperidin-1-yl)-methanone], the inhibition constant (Ki) is 2 nM.
